This is an account of results in the OligoGym collection.

“And” between values parts separate entries of the source, which are not always exact repeats. Equal values may be shown once. HELM strings list units from the 5' end as sugar, base in round brackets, then linkage (d deoxyribose, r ribose, m 2'-O-methyl, p phosphodiester). Methylation of C is not given here. [moe] = 2'-O-(2-methoxyethyl) (MOE); [cEt] = constrained ethyl (cEt); [sp] = phosphorothioate linkage

The data set addresses HBV. Conditions: ASO.

Regarding “RNA1{[moe](G)[sp].[moe](A)[sp].[moe](G)[sp].d(T)[sp].d(T)[sp].d(C)[sp].d(C)[sp].d(G)[sp].d(C)[sp].d(A)[sp].d(G)[sp].d(T)[sp].[moe](A)[sp].[moe](T)[sp].[moe](G)[sp].[moe](G)}$$$$V2.0”, the target mRNA inhibition (HepG2, 0.07 µM) is 54% and 30%.

With “RNA1{[moe](G)[sp].[moe](A)[sp].[moe](T)[sp].[moe](G)[sp].[moe](A)[sp].d(G)[sp].d(G)[sp].d(C)[sp].d(A)[sp].d(T)[sp].d(A)[sp].d(G)[sp].d(C)[sp].d(A)[sp].[moe](G)[sp].[moe](C)[sp].[moe](A)}$$$$V2.0”, the target mRNA inhibition (HepG2, 0.07 µM) is 46% and 21%.

For “RNA1{[moe](G)[sp].[moe](C)[sp].[moe](A)[sp].[moe](C)[sp].[moe](T)[sp].[moe](A)[sp].d(G)[sp].d(T)[sp].d(A)[sp].d(A)[sp].d(A)[sp].d(C)[sp].d(T)[sp].d(G)[sp].d(A)[sp].[moe](G)[sp].[moe](C)}$$$$V2.0”, the target mRNA inhibition (HepG2, 0.07 µM) was 74% and 65%.

Regarding “RNA1{[moe](G)[sp].[moe](C)[sp].[moe](A)[sp].[moe](C)[sp].[moe](T)[sp].d(A)[sp].d(G)[sp].d(T)[sp].d(A)[sp].d(A)[sp].d(A)[sp].d(C)[sp].d(T)[sp].d(G)[sp].[moe](A)[sp].[moe](G)[sp].[moe](C)}$$$$V2.0”, the target mRNA inhibition (HepG2, 0.07 µM) was 58% and 63%.

On to “RNA1{[moe](G)[sp].[moe](C)[sp].[moe](A)[sp].[moe](C)[sp].d(T)[sp].d(A)[sp].d(G)[sp].d(T)[sp].d(A)[sp].d(A)[sp].d(A)[sp].d(C)[sp].d(T)[sp].[moe](G)[sp].[moe](A)[sp].[moe](G)}$$$$V2.0”, for which, where the note is “HepG2, 0.07 µM”, the target mRNA inhibition was 52% and 53%.

Consider “RNA1{[moe](G)[sp].[moe](C)[sp].[moe](A)[sp].[moe](T)[sp].[moe](A)[sp].d(G)[sp].d(C)[sp].d(A)[sp].d(G)[sp].d(C)[sp].d(A)[sp].d(G)[sp].d(G)[sp].d(A)[sp].[moe](T)[sp].[moe](G)}$$$$V2.0”, for which, under “HepG2, 0.07 µM”, the target mRNA inhibition was 57% and 54%.

Turning to “RNA1{[moe](G)[sp].[moe](C)[sp].[moe](A)[sp].d(G)[sp].d(A)[sp].d(G)[sp].d(G)[sp].d(T)[sp].d(G)[sp].d(A)[sp].d(A)[sp].d(G)[sp].d(C)[sp].[cEt](G)[sp].[cEt](A)[sp].[cEt](A)}$$$$V2.0”, the target mRNA inhibition (HepG2, 0.07 µM) is 71% and 50%.

Take “RNA1{[moe](G)[sp].[moe](C)[sp].d(A)[sp].d(G)[sp].d(A)[sp].d(G)[sp].d(G)[sp].d(T)[sp].d(G)[sp].d(A)[sp].d(A)[sp].[moe](G)[sp].[moe](C)[sp].[moe](G)[sp].[moe](A)[sp].[moe](A)[sp].[moe](G)}$$$$V2.0”: the target mRNA inhibition (HepG2, 0.07 µM) was 20% and 40%.

With “RNA1{[moe](G)[sp].[moe](C)[sp].d(A)[sp].d(G)[sp].d(A)[sp].d(G)[sp].d(G)[sp].d(T)[sp].d(G)[sp].d(A)[sp].d(A)[sp].[moe](G)[sp].[moe](C)[sp].[moe](G)[sp].[moe](A)[sp].[moe](A)}$$$$V2.0”, the target mRNA inhibition (HepG2, 0.07 µM) was 58% and 57%.

For the substance “RNA1{[moe](G)[sp].[moe](C)[sp].d(A)[sp].d(G)[sp].d(T)[sp].d(A)[sp].d(T)[sp].d(G)[sp].d(G)[sp].d(A)[sp].d(T)[sp].[moe](C)[sp].[moe](G)[sp].[moe](G)[sp].[moe](C)[sp].[moe](A)}$$$$V2.0”, the target mRNA inhibition (HepG2, 0.0092593 µM) was determined as 2%; the target mRNA inhibition (HepG2, 0.0277778 µM) was 25%; the target mRNA inhibition (HepG2, 0.07 µM) was 76% and 73%; the target mRNA inhibition (HepG2, 0.0833333 µM) is 44%; the target mRNA inhibition (HepG2, 0.25 µM) came out at 77%.

As to “RNA1{[moe](G)[sp].[moe](G)[sp].[moe](A)[sp].[moe](G)[sp].[moe](T)[sp].d(T)[sp].d(C)[sp].d(C)[sp].d(G)[sp].d(C)[sp].d(A)[sp].d(G)[sp].d(T)[sp].d(A)[sp].[moe](T)[sp].[moe](G)}$$$$V2.0”, the target mRNA inhibition (HepG2, 0.07 µM) is 74% and 50%.

On to “RNA1{[moe](G)[sp].[moe](G)[sp].[moe](C)[sp].[moe](A)[sp].[moe](T)[sp].d(A)[sp].d(G)[sp].d(C)[sp].d(A)[sp].d(G)[sp].d(C)[sp].d(A)[sp].d(G)[sp].d(G)[sp].[moe](A)[sp].[moe](T)[sp].[moe](G)}$$$$V2.0”, for which, for the setting “HepG2, 0.07 µM”, the target mRNA inhibition is 0%.

Regarding “RNA1{[moe](G)[sp].[moe](G)[sp].[moe](C)[sp].d(A)[sp].d(T)[sp].d(A)[sp].d(G)[sp].d(C)[sp].d(A)[sp].d(G)[sp].d(C)[sp].d(A)[sp].[moe](G)[sp].[moe](G)[sp].[moe](A)[sp].[moe](T)[sp].[moe](G)}$$$$V2.0”, the target mRNA inhibition (HepG2, 0.0092593 µM) was 16%; the target mRNA inhibition (HepG2, 0.0277778 µM) came out at 11%; the target mRNA inhibition (HepG2, 0.07 µM) was 68% and 66%; the target mRNA inhibition (HepG2, 0.0833333 µM) came out at 40%; the target mRNA inhibition (HepG2, 0.25 µM) came to 66%.

“RNA1{[moe](G)[sp].[moe](G)[sp].[moe](T)[sp].[moe](G)[sp].[moe](A)[sp].d(A)[sp].d(G)[sp].d(C)[sp].d(G)[sp].d(A)[sp].d(A)[sp].d(G)[sp].d(T)[sp].d(G)[sp].[moe](C)[sp].[moe](A)}$$$$V2.0”: the target mRNA inhibition (HepG2, 0.07 µM) is 51% and 46%.

Regarding “RNA1{[moe](G)[sp].[moe](G)[sp].d(T)[sp].d(G)[sp].d(A)[sp].d(A)[sp].d(G)[sp].d(C)[sp].d(G)[sp].d(A)[sp].d(A)[sp].[moe](G)[sp].[moe](T)[sp].[moe](G)[sp].[moe](C)[sp].[moe](A)[sp].[moe](C)}$$$$V2.0”, the target mRNA inhibition (HepG2, 0.07 µM) is 77% and 71%.

Turning to “RNA1{[moe](G)[sp].[moe](G)[sp].d(T)[sp].d(G)[sp].d(A)[sp].d(A)[sp].d(G)[sp].d(C)[sp].d(G)[sp].d(A)[sp].d(A)[sp].[moe](G)[sp].[moe](T)[sp].[moe](G)[sp].[moe](C)[sp].[moe](A)}$$$$V2.0”, the target mRNA inhibition (HepG2, 0.07 µM) was 65% and 62%.

“RNA1{[moe](G)[sp].[moe](T)[sp].[moe](G)[sp].[moe](C)[sp].d(A)[sp].d(G)[sp].d(A)[sp].d(G)[sp].d(G)[sp].d(T)[sp].d(G)[sp].d(A)[sp].d(A)[sp].[moe](G)[sp].[moe](C)[sp].[moe](G)[sp].[moe](A)}$$$$V2.0”: the target mRNA inhibition (HepG2, 0.07 µM) is 62% and 54%.

Regarding “RNA1{[moe](G)[sp].[moe](T)[sp].[moe](G)[sp].[moe](C)[sp].d(A)[sp].d(G)[sp].d(A)[sp].d(G)[sp].d(G)[sp].d(T)[sp].d(G)[sp].d(A)[sp].d(A)[sp].[moe](G)[sp].[moe](C)[sp].[moe](G)}$$$$V2.0”, for the setting “HepG2, 0.07 µM”, the target mRNA inhibition is 64% and 63%.

Regarding “RNA1{[moe](G)[sp].[moe](T)[sp].[moe](G)[sp].d(C)[sp].d(A)[sp].d(G)[sp].d(A)[sp].d(G)[sp].d(G)[sp].d(T)[sp].d(G)[sp].d(A)[sp].d(A)[sp].[cEt](G)[sp].[cEt](C)[sp].[cEt](G)}$$$$V2.0”, the target mRNA inhibition (HepG2, 0.07 µM) is 78% and 74%.

Consider “RNA1{[moe](G)[sp].[moe](T)[sp].[moe](T)[sp].[moe](C)[sp].[moe](C)[sp].[moe](G)[sp].d(C)[sp].d(A)[sp].d(G)[sp].d(T)[sp].d(A)[sp].d(T)[sp].d(G)[sp].d(G)[sp].d(A)[sp].[moe](T)[sp].[moe](C)}$$$$V2.0”, for which the target mRNA inhibition (HepG2, 0.07 µM) was 74% and 57%.

Consider “RNA1{[moe](G)[sp].[moe](T)[sp].d(G)[sp].d(A)[sp].d(A)[sp].d(G)[sp].d(C)[sp].d(G)[sp].d(A)[sp].d(A)[sp].d(G)[sp].[moe](T)[sp].[moe](G)[sp].[moe](C)[sp].[moe](A)[sp].[moe](C)[sp].[moe](A)}$$$$V2.0”, for which the target mRNA inhibition (HepG2, 0.07 µM) is 73% and 68%.

For “RNA1{[moe](G)[sp].[moe](T)[sp].d(G)[sp].d(C)[sp].d(A)[sp].d(G)[sp].d(A)[sp].d(G)[sp].d(G)[sp].d(T)[sp].d(G)[sp].[moe](A)[sp].[moe](A)[sp].[moe](G)[sp].[moe](C)[sp].[moe](G)}$$$$V2.0”, the target mRNA inhibition (HepG2, 0.07 µM) was 53% and 42%.

With “RNA1{[moe](T)[sp].[cEt](A)[sp].[cEt](T)[sp].d(G)[sp].d(C)[sp].d(C)[sp].d(T)[sp].d(A)[sp].d(C)[sp].d(A)[sp].d(G)[sp].d(C)[sp].d(C)[sp].[cEt](T)[sp].[cEt](C)[sp].[moe](C)}$$$$V2.0”, the target mRNA inhibition (HepG2, 0.07 µM) is 55% and 36%.

“RNA1{[moe](T)[sp].[cEt](G)[sp].d(A)[sp].d(G)[sp].d(A)[sp].d(G)[sp].d(A)[sp].d(A)[sp].d(G)[sp].d(T)[sp].d(C)[sp].d(C)[sp].[cEt](A)[sp].[moe](C)[sp].[cEt](C)[sp].[moe](A)}$$$$V2.0”: the target mRNA inhibition (HepG2, 0.07 µM) is 60% and 43%.

For “RNA1{[moe](T)[sp].[cEt](G)[sp].d(A)[sp].d(G)[sp].d(G)[sp].d(C)[sp].d(A)[sp].d(T)[sp].d(A)[sp].d(G)[sp].d(C)[sp].d(A)[sp].[cEt](G)[sp].[moe](C)[sp].[cEt](A)[sp].[moe](G)}$$$$V2.0”, under “HepG2, 0.07 µM”, the target mRNA inhibition is 69% and 75%.

Take “RNA1{[moe](T)[sp].[cEt](T)[sp].[cEt](C)[sp].d(C)[sp].d(G)[sp].d(C)[sp].d(A)[sp].d(G)[sp].d(T)[sp].d(A)[sp].d(T)[sp].d(G)[sp].d(G)[sp].[cEt](A)[sp].[cEt](T)[sp].[moe](C)}$$$$V2.0”: the target mRNA inhibition (HepG2, 0.07 µM) is 47% and 61%.

For the substance “RNA1{[moe](T)[sp].[cEt](T)[sp].[cEt](T)[sp].d(A)[sp].d(T)[sp].d(G)[sp].d(C)[sp].d(C)[sp].d(T)[sp].d(A)[sp].d(C)[sp].d(A)[sp].d(G)[sp].[cEt](C)[sp].[cEt](C)[sp].[moe](T)}$$$$V2.0”, the target mRNA inhibition (HepG2, 0.07 µM) was 55% and 49%.

In the case of “RNA1{[moe](T)[sp].[moe](A)[sp].[moe](T)[sp].[moe](G)[sp].d(C)[sp].d(C)[sp].d(T)[sp].d(A)[sp].d(C)[sp].d(A)[sp].d(G)[sp].d(C)[sp].d(C)[sp].[moe](T)[sp].[moe](C)[sp].[moe](C)}$$$$V2.0”, where the note is “HepG2, 0.07 µM”, the target mRNA inhibition is 33% and 42%.

“RNA1{[moe](T)[sp].[moe](A)[sp].[moe](T)[sp].d(G)[sp].d(C)[sp].d(C)[sp].d(T)[sp].d(A)[sp].d(C)[sp].d(A)[sp].d(G)[sp].d(C)[sp].d(C)[sp].[cEt](T)[sp].[cEt](C)[sp].[cEt](C)}$$$$V2.0”: where the note is “HepG2, 0.07 µM”, the target mRNA inhibition was 39% and 45%.

In the case of “RNA1{[moe](T)[sp].[moe](A)[sp].d(T)[sp].d(G)[sp].d(C)[sp].d(C)[sp].d(T)[sp].d(A)[sp].d(C)[sp].d(A)[sp].d(G)[sp].[moe](C)[sp].[moe](C)[sp].[moe](T)[sp].[moe](C)[sp].[moe](C)}$$$$V2.0”, where the note is “HepG2, 0.07 µM”, the target mRNA inhibition is 54% and 55%.
